Experimental data published in US9327009B2, “Peptide inhibitors as novel anti-HIV therapeutics” (Council of Scientific & Industrial Research, priority 2012, dated 2016).

Target: Nef-ASK1 interaction (UniProt P03404+Q99683)
Conditions: ATCC CRL-1573 cells co-transfected with Nef-ASK1g, 48 hours; ASK-1 alone 43.15, ASK-1 + Nef (background) 22.15, control 11.0
Method: HEK 293 cells were grown in Minimal Essential medium (low glucose, Sigma) supplemented with 10% fetal bovine serum, penicillin (100 units/ml), streptomycin (100 μg/ml) and Gentamycin (50 μg/ml) at 37° C. with 5% CO2. 1×10^5 cells were seeded per well in twenty four well plates, one day before transfection. Using commercially available ExGen 500 (fermentas) transfection reagent, all the required endotoxin free plasmid constructs were co-transfected into HEK 293 cells. 0.75 microgram of each plasmid and 5.0 micro liters per well ExGen 500 reagent were used. 48 h post transfection the cells were harvested and Luciferase activity was monitored using the Dual-Luciferase® Reporter assay kit (Promega). The data for basal control were used for the conversion of Luciferase activity to fold activation. As a positive control, the protein-protein interaction vectors pACTMyoD and pBIND-ID encoding the MyoD and ID control proteins, provided with the kit were used.
The ASK1g, h, i,j fragments alone and with Nef were transfected in ATCC CRL-1573™ cells. The transfected cells were cultured for 48 hours and were labeled with AnnexinV and PI staining for analyzing aspoptosis.
Inhibitors were designed from the crystal structure of Nef solved in our laboratory (Pankaj et al., 2011) The inhibitors were cultured with cells transfected will Nef, ASK1g and co-transfected with Nef-ASK1g. The cells after 48 hours were analysed for apoptosis using annexin V and PI staining.

Row | Sequence | % of Annexin V cells means apoptotic cells
1 | DEVGEANN [Peptide-3] | 40.37%
2 | GENNCLLH [Peptide-2] | 24.96%
3 | LHGMEDPE [Peptide-4] | 23.0%
4 | PVRPQVPLRP [Peptide-5] | 22.45%
5 | TPGPGVRYP [Peptide-1] | 22.45%
